Assay results: ChEMBL document CHEMBL1145934, “Novel sst(4)-selective somatostatin (SRIF) agonists. 2. Analogues with beta-methyl-3-(2-naphthyl)alanine substitutions at position 8” (J Med Chem, 2003)

Legend:
[1] = target: Somatostatin receptor type 2 (Homo sapiens, UniProt P30874); assay: Binding affinity at human Somatostatin receptor type 2 by [125I][Leu8,D-Trp22,Tyr25]SRIF-28 displacement.
[2] = target: Somatostatin receptor type 3 (Homo sapiens, UniProt P32745); assay: Binding affinity at human Somatostatin receptor type 3 by [125I][Leu8,D-Trp22,Tyr25]SRIF-28 displacement.
[3] = target: Somatostatin receptor type 1 (Homo sapiens, UniProt P30872); assay: Binding affinity at human Somatostatin receptor type 1 by [125I][Leu8,D-Trp22,Tyr25]SRIF-28 displacement.
[4] = target: Somatostatin receptor type 4 (Homo sapiens, UniProt P31391); assay: Binding affinity at human Somatostatin receptor type 4 by [125I][Leu8,D-Trp22,Tyr25]SRIF-28 displacement.
[5] = target: Somatostatin receptor type 5 (Homo sapiens, UniProt P35346); assay: Binding affinity at human Somatostatin receptor type 5 by [125I][Leu8,D-Trp22,Tyr25]SRIF-28 displacement.
Sequence of Somatostatin receptor type 5 (P35346 whole entry): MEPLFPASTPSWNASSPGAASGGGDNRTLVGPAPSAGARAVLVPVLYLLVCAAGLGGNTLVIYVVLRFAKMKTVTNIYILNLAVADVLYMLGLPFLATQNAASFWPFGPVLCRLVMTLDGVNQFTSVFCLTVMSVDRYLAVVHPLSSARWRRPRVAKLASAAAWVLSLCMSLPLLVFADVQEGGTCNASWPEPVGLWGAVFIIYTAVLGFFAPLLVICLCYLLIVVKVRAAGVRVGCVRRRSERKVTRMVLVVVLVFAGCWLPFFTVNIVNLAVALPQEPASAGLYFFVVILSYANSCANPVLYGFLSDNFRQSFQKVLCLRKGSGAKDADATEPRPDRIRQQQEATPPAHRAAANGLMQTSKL

Sequence of Somatostatin receptor type 2 (P30874 whole entry): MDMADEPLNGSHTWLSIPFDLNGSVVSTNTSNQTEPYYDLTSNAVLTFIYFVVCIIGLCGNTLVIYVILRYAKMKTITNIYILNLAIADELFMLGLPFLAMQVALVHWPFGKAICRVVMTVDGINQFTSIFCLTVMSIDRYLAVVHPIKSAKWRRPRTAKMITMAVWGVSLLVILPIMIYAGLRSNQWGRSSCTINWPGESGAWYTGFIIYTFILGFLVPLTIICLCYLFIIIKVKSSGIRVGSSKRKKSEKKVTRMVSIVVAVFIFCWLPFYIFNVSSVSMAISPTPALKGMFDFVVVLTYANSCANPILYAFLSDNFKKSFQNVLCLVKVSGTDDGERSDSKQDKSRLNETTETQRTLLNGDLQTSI
Sequence of Somatostatin receptor type 4 (P31391 whole entry): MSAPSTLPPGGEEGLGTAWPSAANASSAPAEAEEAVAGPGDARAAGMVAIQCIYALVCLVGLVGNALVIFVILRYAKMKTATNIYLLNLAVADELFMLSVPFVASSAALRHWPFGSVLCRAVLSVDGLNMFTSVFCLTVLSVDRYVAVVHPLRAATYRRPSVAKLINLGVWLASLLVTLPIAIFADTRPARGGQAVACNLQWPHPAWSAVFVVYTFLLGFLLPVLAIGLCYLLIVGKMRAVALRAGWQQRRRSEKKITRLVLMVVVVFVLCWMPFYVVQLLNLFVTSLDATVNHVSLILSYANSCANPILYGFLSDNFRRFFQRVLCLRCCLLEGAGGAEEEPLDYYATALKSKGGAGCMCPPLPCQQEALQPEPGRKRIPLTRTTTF
Sequence of Somatostatin receptor type 1 (P30872 whole entry): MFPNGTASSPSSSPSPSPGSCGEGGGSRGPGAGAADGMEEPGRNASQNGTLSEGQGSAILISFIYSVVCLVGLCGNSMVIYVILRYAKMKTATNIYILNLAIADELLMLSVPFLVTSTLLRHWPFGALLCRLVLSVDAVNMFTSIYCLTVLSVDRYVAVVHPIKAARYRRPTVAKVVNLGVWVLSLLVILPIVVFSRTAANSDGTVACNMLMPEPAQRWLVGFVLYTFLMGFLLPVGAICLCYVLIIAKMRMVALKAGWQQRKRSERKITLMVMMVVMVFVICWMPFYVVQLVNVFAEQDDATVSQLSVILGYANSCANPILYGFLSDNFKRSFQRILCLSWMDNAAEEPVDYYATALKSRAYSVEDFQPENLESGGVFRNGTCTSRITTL
Sequence of Somatostatin receptor type 3 (P32745 whole entry): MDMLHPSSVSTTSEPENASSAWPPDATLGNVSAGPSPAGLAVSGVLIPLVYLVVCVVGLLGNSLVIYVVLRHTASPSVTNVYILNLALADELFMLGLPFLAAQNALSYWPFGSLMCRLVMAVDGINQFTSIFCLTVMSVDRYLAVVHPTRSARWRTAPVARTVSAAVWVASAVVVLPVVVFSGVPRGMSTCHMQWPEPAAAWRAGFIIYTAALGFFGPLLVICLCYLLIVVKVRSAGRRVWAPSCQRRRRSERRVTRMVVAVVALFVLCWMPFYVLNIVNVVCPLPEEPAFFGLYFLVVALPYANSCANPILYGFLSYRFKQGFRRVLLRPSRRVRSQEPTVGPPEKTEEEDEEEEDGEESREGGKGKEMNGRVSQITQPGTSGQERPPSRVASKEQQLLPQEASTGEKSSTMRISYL

Structure (SMILES)	IC50 [1] [nM]	IC50 [2] [nM]	IC50 [3] [nM]	IC50 [4] [nM]	IC50 [5] [nM]
COC(=O)[C@H](CCCN=C(N)N)NC(=O)CCCc1c(-c2ccccc2)[nH]c2c(F)cc(F)cc12	> 10000	> 10000			
C[C@@H](O)[C@@H]1NC(=O)[C@H](CCCCN)NC(=O)[C@H]([C@@H](C)c2ccc3ccccc3c2)NC(=O)[C@H](Cc2ccc(O)cc2)NC(=O)[C@H](Cc2ccccc2)NC(=O)[C@@H](N)CSSC[C@@H](C(=O)O)NC(=O)[C@H](Cc2ccccc2)NC1=O	110	600	> 1000	2.1	147
C[C@H](c1ccc2ccccc2c1)[C@@H]1NC(=O)[C@H](Cc2ccc(O)cc2)NC(=O)[C@H](Cc2ccccc2)NC(=O)[C@@H](N)CSSC[C@@H](C(=O)O)NC(=O)[C@H](Cc2ccccc2)NC(=O)[C@H]([C@@H](C)O)NC(=O)[C@H](CCCCN)NC1=O	30	18	410	2.2	17.5
C[C@H](c1ccc2ccccc2c1)[C@@H]1NC(=O)[C@H](Cc2ccc(N)cc2)NC(=O)[C@H](Cc2ccccc2)NC(=O)[C@H](NC(=O)[C@@H](N)Cc2ccc(O)cc2)CSSC[C@@H](C(=O)O)NC(=O)[C@H](Cc2ccccc2)NC(=O)[C@H]([C@@H](C)O)NC(=O)[C@H](CCCCN)NC1=O	474	595	> 1000	61	> 1000
C[C@@H](O)[C@H]1NC(=O)[C@H](CCCCN)NC(=O)[C@@H]([C@@H](C)c2ccc3ccccc3c2)NC(=O)[C@H](Cc2ccc(N)cc2)NC(=O)[C@@H](Cc2ccccc2)NC(=O)[C@H](N)CSSC[C@@H](C(=O)O)NC(=O)[C@H](Cc2ccccc2)NC1=O	575	> 1000	> 10000	6.9	> 10000
C[C@H](c1ccc2ccccc2c1)[C@@H]1NC(=O)[C@H](Cc2ccc(N)cc2)NC(=O)[C@@H](Cc2ccccc2)NC(=O)[C@H](N)CSSC[C@@H](C(=O)O)NC(=O)[C@H](Cc2ccccc2)NC(=O)[C@@H]([C@@H](C)O)NC(=O)[C@H](CCCCN)NC1=O	102	186	> 1000	8.7	101
C[C@H](c1ccc2ccccc2c1)[C@H]1NC(=O)[C@H](Cc2ccc(O)cc2)NC(=O)[C@@H](Cc2ccccc2)NC(=O)[C@H](N)CSSC[C@@H](C(=O)O)NC(=O)[C@H](Cc2ccccc2)NC(=O)[C@@H]([C@@H](C)O)NC(=O)[C@H](CCCCN)NC1=O	> 10000	> 1000	> 10000	> 1000	> 10000
C[C@@H](O)[C@H]1NC(=O)[C@H](CCCCN)NC(=O)[C@@H]([C@@H](C)c2ccc3ccccc3c2)NC(=O)[C@H](Cc2ccccc2)NC(=O)[C@@H](Cc2ccccc2)NC(=O)[C@H](N)CSSC[C@@H](C(=O)O)NC(=O)[C@H](Cc2ccc(O)cc2)NC1=O	357	325	> 1000	11.8	700
C[C@@H](O)[C@@H]1NC(=O)[C@H](CCCCN)NC(=O)[C@@H]([C@@H](C)c2ccc3ccccc3c2)NC(=O)[C@H](Cc2ccc(O)cc2)NC(=O)[C@H](Cc2ccccc2)NC(=O)[C@@H](N)CSSC[C@@H](C(=O)O)NC(=O)[C@H](Cc2ccccc2)NC1=O	> 1000	> 10000	> 1000	105	> 1000
C[C@@H](O)[C@@H]1NC(=O)[C@H](CCCCN)NC(=O)[C@@H]([C@@H](C)c2ccc3ccccc3c2)NC(=O)[C@H](Cc2ccc(N)cc2)NC(=O)[C@H](Cc2ccccc2)NC(=O)[C@H](NC(=O)[C@@H](N)Cc2ccc(O)cc2)CSSC[C@@H](C(=O)O)NC(=O)[C@H](Cc2ccccc2)NC1=O	204	171	> 1000	9.8	127
C[C@@H](O)[C@@H]1NC(=O)[C@H](CCCCN)NC(=O)[C@@H]([C@@H](C)c2ccc3ccccc3c2)NC(=O)[C@H](Cc2ccc(O)cc2)NC(=O)[C@H](Cc2ccccc2)NC(=O)[C@H](N)CSSC[C@@H](C(=O)O)NC(=O)[C@H](Cc2ccccc2)NC1=O				0.53	
C[C@H](c1ccc2ccccc2c1)[C@@H]1NC(=O)[C@H](Cc2ccccc2)NC(=O)[C@@H](Cc2ccccc2)NC(=O)[C@H](N)CSSC[C@@H](C(=O)O)NC(=O)[C@H](Cc2ccc(O)cc2)NC(=O)[C@@H]([C@@H](C)O)NC(=O)[C@H](CCCCN)NC1=O	16	12	> 1000	9.2	47
